Peptide text beside a SMILES is read from it.
Columns and labels:
[1] = clinical; conditions: human, in vivo, iv
Text: The SAD/MAD study was a phase 1, double-blind, placebo-controlled, multicohort trial. Part 1 used a SAD design according to which subjects received a single i.v. dose of SPR741. Part 2 used a MAD design in which subjects received multiple daily i.v. doses of SPR741 over a period of 14 days. The objective was to assess the safety/tolerability and PK of single and multiple ascending doses of SPR741. In the SAD phase, healthy volunteers were screened within 28 days prior to dosing. Subjects were admitted to the clinical facility on day −1 for up to 3 days. A single dose of SPR741 (or placebo) was administered on day 1. Following completion of all safety assessments and sampling for PK analyses, subjects were discharged on day 2. A follow-up visit occurred 5 to 7 days after day 1 dosing. In the MAD phase, all subjects were admitted to the clinical facility on day −1. Dosing commenced on the morning of day 1. Three doses were administered daily at approximately 8 (±0.5)-h intervals for a total of 14 consecutive days. The last dose was administered on the morning of day 14. Blood and urine samples were collected for assessment of PK parameters. Subjects were discharged on day 16 following completion of all PK sample collection and safety assessments, and a follow-up visit occurred 5 to 7 days after the last dose. The MAD phase of the study began after safety and tolerability were confirmed in cohort 5, and the appropriate dose level was established. Two subjects received placebo, and six subjects received SPR741 doses of 50, 150, 400 or 600 mg q8h for 14 days. In the first cohort of the MAD phase (50 mg q8h), two subjects (sentinels) began dosing with SPR741 or placebo 72 h prior to dosing of the remaining subjects in this cohort. The remaining six subjects were dosed only after no safety concerns were identified by the Safety Monitoring Group at 72 h. […]

[2] = clinical; parameters: species or system human; conditions: in vivo, iv
Text: The SAD/MAD study was a phase 1, double-blind, placebo-controlled, multicohort trial. Part 1 used a SAD design according to which subjects received a single i.v. dose of SPR741. Part 2 used a MAD design in which subjects received multiple daily i.v. doses of SPR741 over a period of 14 days. The objective was to assess the safety/tolerability and PK of single and multiple ascending doses of SPR741. In the SAD phase, healthy volunteers were screened within 28 days prior to dosing. Subjects were admitted to the clinical facility on day −1 for up to 3 days. A single dose of SPR741 (or placebo) was administered on day 1. Following completion of all safety assessments and sampling for PK analyses, subjects were discharged on day 2. A follow-up visit occurred 5 to 7 days after day 1 dosing. In the MAD phase, all subjects were admitted to the clinical facility on day −1. Dosing commenced on the morning of day 1. Three doses were administered daily at approximately 8 (±0.5)-h intervals for a total of 14 consecutive days. The last dose was administered on the morning of day 14. Blood and urine samples were collected for assessment of PK parameters. Subjects were discharged on day 16 following completion of all PK sample collection and safety assessments, and a follow-up visit occurred 5 to 7 days after the last dose. In the SAD phase, subjects were randomized to one of eight cohorts that received doses of 5, 15, 50, 100, 200, 400, 600 or 800 mg of SPR741. Within each cohort, two subjects received placebo, and six received SPR741. In cohort 1, two subjects (sentinels) were dosed with SPR741 or placebo 48 h prior to dosing of the remaining subjects. The remaining six subjects were dosed only after no safety concerns were identified in the sentinel subjects. After each dose cohort had completed administration of study drug and evaluation, a Safety Monitoring Group reviewed blinded cumulative safety data (including day 5 to day 7 follow-up data) to confirm the safety and tolerability of SPR741.

## CC(=O)N[C@H](C(=O)N[C@H](CO)C(=O)N[C@H]1CCNC(=O)[C@H]([C@@H](C)O)NC(=O)[C@H](CCN)NC(=O)[C@H](CCN)NC(=O)[C@H](CC(C)C)NC(=O)[C@@H](Cc2ccccc2)NC(=O)[C@H](CCN)NC1=O)[C@@H](C)O [SPR741] (HELM PEPTIDE1{[ac].T.[dS].[Dab].[Dab].[dF].L.[Dab].[Dab].T}$PEPTIDE1,PEPTIDE1,4:R3-10:R2$$$V2.0)
[1]
  Tmax: 1 h
[1]; CL
  clearance: 89 mL/min
[1]; mean (apparent terminal elimination) half-life, day 1
  half-life: 2.2 h
[2]; human
  Tmax: 1 h
[2]; human, 5 mg
  AUC(0-inf): 1010 ng·h/mL
  Cmax: 370 ng/mL
  Vd: 14.4 L
  clearance: 83.3 mL/min
  half-life: 2.02 h
[2]; human, 15 mg
  AUC(0-inf): 3090 ng·h/mL
  Cmax: 924 ng/mL
  Vd: 19.7 L
  clearance: 84 mL/min
  half-life: 2.81 h
[2]; human, 50 mg
  AUC(0-inf): 9740 ng·h/mL
  Cmax: 3250 ng/mL
  Vd: 18.4 L
  clearance: 86.3 mL/min
  half-life: 2.48 h
[2]; human, 100 mg
  AUC(0-inf): 18200 ng·h/mL
  Cmax: 6010 ng/mL
  Vd: 20.6 L
  clearance: 92.5 mL/min
  half-life: 2.57 h
[2]; human, 200 mg
  AUC(0-inf): 37300 ng·h/mL
  Cmax: 13400 ng/mL
  Vd: 20.3 L
  clearance: 91 mL/min
  half-life: 2.62 h
[2]; human, 400 mg
  AUC(0-inf): 82200 ng·h/mL
  Cmax: 26000 ng/mL
  Vd: 24.5 L
  clearance: 81.5 mL/min
  half-life: 3.47 h
[2]; human, 600 mg
  AUC(0-inf): 133000 ng·h/mL
  Cmax: 38000 ng/mL
  Vd: 24.6 L
  clearance: 77 mL/min
  half-life: 3.76 h
[2]; human, 800 mg
  AUC(0-inf): 190000 ng·h/mL
  Cmax: 52600 ng/mL
  Vd: 21.2 L
  clearance: 70.8 mL/min
  half-life: 3.46 h
[2]
  time of peak mean plasma concentration: approximately 1 h

Source: article PMC6709486, “Safety, Tolerability, Pharmacokinetics, and Drug Interaction Potential of SPR741, an Intravenous Potentiator, after Single and Multiple Ascending Doses and When Combined with β-Lactam Antibiotics in Healthy Subjects” (Antimicrobial Agents and Chemotherapy, 2019)
